{"source": "patent US20230133209A1", "about": "“CELL CLASSIFIER CIRCUITS AND METHODS OF USE THEREOF” (Eidgenössische Technische Hochschule Zürich, priority 2020, published 2023)", "system": "HepG2-LC tumor-bearing mice", "assay": "Antitumor efficacy in orthotopic HepG2 xenograft tumor model (bioluminescence tumor load, score sheet)", "format": "in vivo, mouse", "method": "Accordingly, this tumor-targeting program was evaluated in a pilot experiment in the context of orthotopic xenograft tumor model employing HepG2 cells in NSG mice. For the purpose of tumor establishment and tracking, HepG2 cells were stably modified with a lentiviral vector encoding an mCitrine fluorescent protein and firefly luciferase gene, and sorted for homogenous mCitrine expression. The tumors were established by splenic injection of 1M HepG2-LC cells and subsequent spleen dissection.\nTo gauge antitumor efficacy in vivo, AAV-DJ-HCC.V1-HSV-TK was delivered to HepG2 tumor bearing mice in two consecutive injections, three days apart. The four experimental groups (n=2 in this pilot) included the AAV-DJ-HCC.V1-HSV-TK in combination with GCV regimen (treatment arm), the same vector alone without GCV, sham injection supplemented with GCV regimen, and a sham PBS injection and no GCV.\nNext, DJ-pseudotyped AAV vectors harboring the circuit were delivered systemically to HepG2-LC tumor-bearing mice (FIG. 7A). […]\nXenograft mouse liver mouse model: All animal procedures were performed in accordance with the Swiss federal law and institutional guidelines of Eidgenössische Technische Hochschule (ETH) Zurich, and approved by the animal ethics committee of canton Basel-Stadt. […] The tumor growth in mice was monitored by bioluminescence imaging 2-3 times per week (PhotonIMAGER RT, Biospace Lab). […]", "data": [{"compound": "Nc1nc(O)c2ncn(COC(CO)CO)c2n1", "note": "[GCV, ganciclovir]", "values": [{"measurement": "tumor load over time (bioluminescence)", "setting": "n=4 per arm, sham injection + GCV", "value": "exponential tumor load increase over time"}, {"measurement": "antitumor activity (tumor load, bioluminescence)", "setting": "pilot, n=2, sham injection supplemented with GCV regimen", "value": "absent"}]}]}
